Measurements as given in US10406129B2 (priority 2015, dated 2019).
Entries after “also recorded” stand apart in the source; their conditions may differ. Where two headings read alike, the source gives them in different places.

Experiments:
[1] = test system: platelets; settings: 4 mg/kg/day; hypercholesterolemic rat model; cited from earlier work
[2] = test system: postmenopausal women; test: Microvascular function by peripheral arterial tonometry (Endo-PAT2000) after intake of 90 mg ResArgin or trans-res; type: in vivo, human; settings: combined data
[3] = test system: platelets; test: Platelet function by whole blood/optical lumi-aggregometer after intake; type: in vivo, human
Procedure: Platelet reactivity during clinical screening was assessed by a PFA-100 (Siemens, Deerfield, Ill.), which measures platelet function by simulating arterial hemostasis under blood flow shear stress. During the intervention, platelet function was assessed by a whole blood/optical lumi-aggregometer (Chrono-log Model 700, Havertown, Pa.). Briefly, platelet aggregation was measured via electrical impedence (or electrical resistance), whereas lumi-aggregometry was used to examine aggregation together with adenosine triphosphate (hereafter, “ATP”) release, which is determined with firefly luciferin-luciferase system. […] One of the following agonists was used to stimulate platelets: collagen (1 μL and 5 μL), AA (10 μL) or ADP (10 μL). ATP release was measured only when platelets were activated with ADP. The aggregation was measured over a period of six minutes, following the addition of an agonist.

[4] = test system: platelets; settings: in vitro; 10-1,000 μM; dose dependent; cited from earlier work
[5] = test system: platelets; settings: 10 mg daily for three months; stable coronary artery disease patients; cited from earlier work
[6] = test system: endothelial nitric oxide synthase (eNOS); settings: 1 μM; human umbilical vein endothelial cells; cited from earlier work
[7] = Plasma resveratrol concentrations after intake (HPLC), one hour study; type: in vivo, human; settings: median (interquartile range), n=30
Procedure: Participants were randomized by block design to consumed trans-res or ResArgin™ in random order. Randomization was performed by the study coordinator following a predetermined plan formulated via a web-based random number generator. […] The study included two separate investigations: a one hour study and a two hour study (FIG. 6). During each study visit, which took place after an overnight fast, a baseline measurement of PAT and a blood sample were collected, followed by consumption of the assigned treatment. During the one hour study, PAT measurements and blood samples were collected thirty and […] minutes after the capsules were consumed. During the two hour study, a PAT measurement and blood sample were taken two hours after the capsules were consumed.
Briefly, plasma was treated with acidified methanol [0.5% (v/v) of acetic acid in methanol; precooled to −20° C.] containing an appropriate recovery standard. The mixture was stored at −80 C for 12 hours to allow for cryo-assisted protein precipitation, and then centrifuged for 15 min at 16,500×g. The supernatant fraction was transferred and its volume reduced to less than 50 μL by removing the solvents under vacuum with a […] SpeedVac Concentrator (Thermo Electron Corporation, Milford, Mass.). […]

[8] = platelets stimulated with 10 μL arachidonic acid, one hour after intake

Plasma resveratrol concentration ([7]; 30 minutes after intake of 90 mg) | Plasma resveratrol concentration ([7]; 60 minutes after intake of 90 mg) | SMILES | ADP-induced platelet aggregation [1] | Change in FRHI compared to baseline ([2]; one and two hours post-consumption) | Significant improvement in RHI compared to baseline ([2]; one hour after intake) | Slope, change from baseline ([3]; lumi-aggregometry with 10 μL ADP, one-hour post consumption) | Slope, change from baseline ([3]; platelets stimulated with 1 μL collagen, one hour after consumption) | Lag time, change from baseline ([3]; platelets stimulated with 1 μL collagen, one-hour post consumption) | Area under the curve (AUC) of aggregation, change from baseline [3, 8] | Maximum aggregation, change from baseline [3, 8] | Platelet function, change from baseline ([3]; stimulation with 5 μL collagen) | Platelet aggregation [4] | Platelet aggregation [5] | Expression of eNOS [6]
– | – | Oc1ccc(C=Cc2cc(O)cc(O)c2)cc1 [Resveratrol, 3,5,4′-trihydroxystilbene] | inhibited | – | – | – | – | – | – | – | – | – | – | –
2.04 (0.82, 2.54) | 2.65 (1.69, 3.44) | Oc1ccc(/C=C/c2cc(O)cc(O)c2)cc1 [trans-res, Trans-resveratrol] | – | No differences; also recorded: no changes | not observed | significant decrease | not | significant increase | no changes | no changes | no significant changes | significantly reduced | significantly reduced | up-regulated
